Source: the Deep4Chem optical property database
Each block holds one compound with its values, some of them ahead of it.

Assay: solvent given as SMILES

- absorption maximum (in ClCCl): 413 nm
SMILES: CN(C)c1ccc(C2=Cc3ccccc3P2(=O)c2ccccc2)cc1 (stereo unspecified)

- absorption maximum (in ClC(Cl)Cl): 425 nm
SMILES: c1cc2ccc3[nH]c4ccc5cccc6c(c1)c2c3c4c56

- absorption maximum (in ClC(Cl)Cl): 397 nm
SMILES: N=c1oc2cccc3c4c(-c5ccccc5)oc5cccc(c(c1-c1ccccc1)c23)c54

- absorption maximum (in ClCCl): 358 nm
SMILES: CC(=O)c1ccc(-c2cccc3ncc(-c4ccccc4)n23)cc1

- absorption maximum (in ClCCl): 658 nm
SMILES: CC1=c2c3c4cccc5cccc(c=3c(C)[n+]2[B-](F)(F)n2c(C)c3cc6c(-c7ccccc7)c7c(c(-c8ccccc8)c6cc3c21)-c1cccc2cccc-7c12)c54

- absorption maximum (in ClCCl): 402 nm
SMILES: Clc1ccc2nc3cc4ccccc4cc3c(-c3ccccc3)c2c1

- absorption maximum (in C1CCOC1): 401 nm
SMILES: C[Si](C)(C)c1ccc(-c2ccc(-c3ccc(-c4ccc(-c5ccc([Si](C)(C)C)cc5)cc4)c4nsnc34)cc2)cc1

- absorption maximum (in CC#N): 345 nm
- absorption maximum (in ClCCl): 365 nm
SMILES: Cc1cc(-c2ccc(C(C)(C)C)cc2)cc(C)[o+]1

- absorption maximum (in C1CCCCC1): 340 nm
- absorption maximum (in CO): 340 nm
SMILES: Clc1ccc(/C=C(\c2ccccc2)c2nc3ccccc3s2)cc1

- absorption maximum (in ClCCl): 394 nm
SMILES: Cc1ccc(C2=Nc3cccc4[n+]3[B-](F)(O2)OC(c2ccc(C)cc2)=N4)cc1

- absorption maximum (in ClCCl): 323 nm
SMILES: CCOC(=O)c1c(-c2cc3ccccc3oc2=O)nn(-c2ccc(Br)cc2)c1C(=O)OCC

- absorption maximum (in ClC(Cl)Cl): 332.1 nm
SMILES: COc1ccc(-c2cc3c4c(c2)CCc2cc(-c5ccc(OC)cc5)cc(c2-4)CC3)cc1

- absorption maximum (in CS(C)=O): 365 nm
SMILES: CSc1ccc(-c2nc3sc4ccccc4c3s2)cc1

- absorption maximum (in ClCCl): 332 nm
SMILES: CC(C)(C)NC(=O)c1cccc2ccc3c4ccccc4c4ccccc4c3c12

- absorption maximum (in ClC(Cl)Cl): 403 nm
SMILES: C(=N\c1ccc(-c2cn3nc(-c4cccs4)sc3n2)cc1)/c1ccc2ccc3cccc4ccc1c2c34

Further lines, the compound ahead of its results:

SMILES: COc1ccc(/C=C/C2=CC(/C=C/c3ccc(OC)c4ccccc34)=[O+][B-](F)(F)O2)c2ccccc12
- absorption maximum (in CC#N): 530 nm
- absorption maximum (in CC(C)=O): 532 nm
- absorption maximum (in CCOC(C)=O): 524 nm
- absorption maximum (in CCOCC): 516 nm
- absorption maximum (in ClC(Cl)(Cl)Cl): 523 nm
- absorption maximum (in ClCCl): 536 nm

SMILES: N#Cc1ccc(C=C(c2ccccc2)c2ccccc2)cc1
- absorption maximum (in C1CCOC1): 321 nm

SMILES: CCCCn1c(-c2ccc(-c3ccc(-c4ccc(-c5n(CCCC)c6ccccc6[n+]5CCCC)cc4)cc3)cc2)[n+](CCCC)c2ccccc21
- absorption maximum (in O): 303 nm

SMILES: Cn1c2ccc(S(=O)(=O)Cl)cc2c(=O)c2cc(S(=O)(=O)Cl)ccc21
- absorption maximum (in CS(C)=O): 406 nm

SMILES: Cc1ccc2c(c1)c1cc(Br)ccc1n2-c1c(C#N)c(-n2c3ccc(Br)cc3c3cc(Br)ccc32)c(-n2c3ccc(Br)cc3c3cc(Br)ccc32)c(C#N)c1-n1c2ccc(Br)cc2c2cc(Br)ccc21
- absorption maximum (in Cc1ccccc1): 339 nm

SMILES: Cc1cc(C)c(C)c(-c2ccc3cc(C)c(=O)oc3c2)c1C
- absorption maximum (in C1CCCCC1): 312 nm
- absorption maximum (in CC#N): 314 nm
- absorption maximum (in CO): 315 nm

SMILES: CCCCCCCC[Si](C)(C)c1cccc2ccccc12
- absorption maximum (in C1CCCCC1): 294 nm

SMILES: CC(C)c1cc(C(C)C)c(B2c3ccccc3Oc3cc(N4c5ccccc5C(C)(C)c5ccccc54)ccc32)c(C(C)C)c1
- absorption maximum (in Cc1ccccc1): 436 nm

SMILES: CCOC(=O)COc1ccc(/C=C/C2=C3c4ccccc4C(c4ccc[nH]4)=[N+]3[B-](F)(F)n3ccc(C)c32)cc1
- absorption maximum (in C1CCOC1): 586 nm
- absorption maximum (in CC#N): 577 nm
- absorption maximum (in CCCCCC): 587 nm
- absorption maximum (in CO): 580 nm
- absorption maximum (in Cc1ccccc1): 592 nm
- absorption maximum (in ClCCl): 585 nm

SMILES: O=S1(=O)c2ccccc2Oc2cc(N3c4ccccc4C4(c5ccccc53)c3ccccc3N(c3ccc5c(c3)Oc3ccccc3S5(=O)=O)c3ccccc34)ccc21
- absorption maximum (in Cc1ccccc1): 359.89 nm

SMILES: c1cc2c3cc1c1ccc4c(c1)c1cc(ccc1[C@]15OCCO[C@]41OCCO5)c1ccc4c(c1)c1cc(ccc1[C@]15OCCO[C@]41OCCO5)c1ccc(c3c1)[C@]13OCCO[C@]21OCCO3
- absorption maximum (in Cc1ccccc1): 300 nm

SMILES: CN(C)c1ccc2c(c1)[Si](C)(C)C1=CC(=[N+](C)C)C=CC1=C2C#Cc1ccccc1
- absorption maximum (in CO): 712 nm
- absorption maximum (in O): 712 nm

SMILES: Brc1ccc(N/C=C/C=[NH+]c2ccc(Br)cc2)cc1
- absorption maximum (in CS(C)=O): 386 nm

SMILES: CCn1ncc2c3c(C#N)c4c5ccccc5n(CC)c4nc3ccc21
- absorption maximum (in CCOC(C)=O): 383 nm

SMILES: O=C1c2ccc3c4ccc5c6c(ccc(c7ccc(c2c37)C(=O)N1c1ccc(Cl)cc1)c64)C(=O)N(c1ccc(Cl)cc1)C5=O
- absorption maximum (in CN(C)C=O): 525 nm

SMILES: Cc1cccc2nc3[nH]c(=O)[nH]c(=O)c3nc12
- absorption maximum (in CC#N): 380 nm

SMILES: Cc1cc(O)c(C(=O)/C=C/c2ccccc2[N+](=O)[O-])c(=O)o1
- absorption maximum (in CC#N): 352 nm
- absorption maximum (in ClCCl): 365 nm

SMILES: CC1(C)c2cccc(-c3nc(-c4ccccc4)nc(-c4ccccc4)n3)c2Oc2c(-n3c4ccccc4c4ccccc43)cccc21
- absorption maximum (in Cc1ccccc1): 341 nm

SMILES: Cc1cc(C)c(B(c2cc(-c3ccccc3)sc2-c2sc(-c3ccccc3)cc2P(=O)(c2ccccc2)c2ccccc2)c2c(C)cc(C)cc2C)c(C)c1
- absorption maximum (in CO): 392 nm

SMILES: c1ccc2c(c1)-c1ccccc1C21c2cc(-c3ccc(-n4c5ccccc5c5ccccc54)cc3)ccc2Sc2ccc(-c3ccc(-n4c5ccccc5c5ccccc54)cc3)cc21
- absorption maximum (in ClCCl): 341 nm

SMILES: N#CC(C#N)=C(c1ccc(-n2ccc3ccccc32)cc1)c1ccc(-n2ccc3ccccc32)cc1
- absorption maximum (in Cc1ccccc1): 400 nm

SMILES: c1ccc(Nc2nc(Nc3ccccc3)nc(Nc3ccc4c5cccc6cccc(c7cccc3c74)c65)n2)cc1
- absorption maximum (in C1COCCO1): 444 nm
- absorption maximum (in CC#N): 444 nm
- absorption maximum (in CCCCOCCCC): 444 nm
- absorption maximum (in CCOC(C)=O): 443 nm

SMILES: CC(C)(C)c1ccc(-c2c3c(c(-c4ccc(C(C)(C)C)cc4)c4cc5ccccc5cc24)Cc2c(c(-c4ccc(C(C)(C)C)cc4)c4cc5ccccc5cc4c2-c2ccc(C(C)(C)C)cc2)C3)cc1
- absorption maximum (in ClCCl): 393 nm

SMILES: N#Cc1c(C#N)c2ccccc2c2ccccc12
- absorption maximum (in ClC(Cl)Cl): 346 nm

SMILES: CCCCN(CCCC)c1ccc(C#Cc2cc(C#Cc3ccc(N(CCCC)CCCC)cc3)c(C#Cc3ccc([N+](=O)[O-])cc3)cc2C#Cc2ccc([N+](=O)[O-])cc2)cc1
- absorption maximum (in ClCCl): 426 nm

SMILES: O=[N+]([O-])c1cc(C=C(C#Cc2ccccc2)C#Cc2ccccc2)ccc1C=C(C#Cc1ccccc1)C#Cc1ccccc1
- absorption maximum (in ClC(Cl)Cl): 413 nm

SMILES: O=C(O)C1=CC(=C/C=[N+]2/c3cc(O)c(C[C@@H]4O[C@H](CO)[C@@H](O)C(O)[C@H]4O)cc3C[C@H]2C(=O)O)C=C(C(=O)O)N1 (stereo partly specified)
- absorption maximum (in CO): 467 nm
- absorption maximum (in O): 468 nm
- absorption maximum (in OCCO): 476 nm
- absorption maximum (in [2H]O[2H]): 468 nm

SMILES: Cc1ccc(N2C(c3ccccc3N)=NC(c3ccccc3)C2c2ccccc2)cc1 (stereo unspecified)
- absorption maximum (in Cc1ccccc1): 282 nm

SMILES: O=C(O)c1ccc2ccc3cccc4ccc1c2c34
- absorption maximum (in C1CCOC1): 379 nm
- absorption maximum (in CC#N): 379 nm
- absorption maximum (in CCCCCC): 381 nm
- absorption maximum (in CCO): 340 nm
- absorption maximum (in CN(C)C=O): 377 nm
- absorption maximum (in CO): 339 nm
- absorption maximum (in Cc1ccccc1): 382 nm
- absorption maximum (in ClCCl): 382 nm

SMILES: CC(C)(C)C1CCC(=CS/C=C/c2ccc(/C=C/SC=C3CCC(C(C)(C)C)CC3)cc2)CC1 (stereo unspecified)
- absorption maximum (in ClCCl): 351 nm

SMILES: c1cc2cc(c1)c1ccc3c(c1)c1cc(ccc1[C@]14OCCO[C@]31OCCO4)c1ccc3c(c1)c1cc(ccc1[C@]14OCCO[C@]31OCCO4)c1cccc2c1
- absorption maximum (in ClC(Cl)Cl): 260 nm

SMILES: CCCCN1C(=O)c2ccc3c4ccc5c6c(ccc(c7ccc(c2c37)C1=O)c64)C(=O)N(CCCC)C5=O
- absorption maximum (in ClC(Cl)Cl): 526 nm
